Source: patent US9662310B2, “Cyclopropanecarboxylic acid derivative” (DAIICHI SANKYO COMPANY, LIMITED, priority 2010, dated 2017)
Where a name gives a salt, the structure may show the parent alone.

What follows are compounds tested against TAFIa (Homo sapiens (Human), UniProt Q96IY4) (assay: Determination of TAFIa enzyme inhibitory activity (FAAK substrate degradation)). Settings: TAFI activated with human thrombin / rabbit lung thrombomodulin; substrate FAAK, absorbance at 330 nm; read-out: TAFIa IC50.
Sequence of TAFIa (Q96IY4 115-423): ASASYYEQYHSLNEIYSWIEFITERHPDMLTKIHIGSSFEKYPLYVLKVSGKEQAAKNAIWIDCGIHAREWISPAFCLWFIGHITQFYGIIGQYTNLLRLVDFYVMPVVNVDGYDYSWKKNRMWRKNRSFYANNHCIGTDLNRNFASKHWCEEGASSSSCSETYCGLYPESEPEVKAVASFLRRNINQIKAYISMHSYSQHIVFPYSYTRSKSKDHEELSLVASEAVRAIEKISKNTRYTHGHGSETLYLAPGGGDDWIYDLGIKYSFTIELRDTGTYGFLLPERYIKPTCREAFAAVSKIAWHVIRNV
Type: biochemical
Protocol: Determination of TAFIa Enzyme Inhibitory Activity
HEPES buffered saline (20 mM HEPES, 150 mM NaCl, pH 7.4; hereinafter, referred to as HBS) was used in the preparation of a reaction solution. To 12 μL of a 250 μg/mL TAFI solution, 30 μL of an HBS solution containing 4 U/mL human thrombin, 12 U/mL rabbit lung thrombomodulin, and 12 mM CaCl2 was added, and the mixture was gently stirred. Then, TAFI was activated at room temperature. Ten minutes later, thrombin was neutralized by the addition of 10 μL of 100 μM PPACK (thrombin inhibitor) to terminate the activation of TAFI. The formed TAFIa was stored in ice and diluted immediately before use in determination with 2050 μL of an HBS solution containing BSA (bovine serum albumin) adjusted to 0.1% in terms of the final concentration.
(2) Determination of TAFIa Inhibitory Activity
A test substance was dissolved in HBS to prepare a 10-fold dilution series of evaluation concentrations. 80 μL of the TAFIa solution and 10 μL of the test substance were added to each well of a 96-well plate and mixed by shaking for 10 minutes. 10 μL of furylacryloyl-alanyl-lysine (FAAK) adjusted to 5 mg/mL was added to each well, and the change in the absorbance of this mixed solution at 330 nm was read for 30 minutes to determine the degradation rate of the substrate.
(3) Calculation of Inhibitory Activity IC50
The degradation rate of the substrate in each well was applied to a standard curve prepared using the dilution series of the TAFIa solution to calculate TAFIa activity.

Compound | IC50 [nM]
CCCn1cnc([C@@]2(C(=O)O)C[C@@H]2CCCN)c1 (relative stereo) [Example 3, (1R*,2S*)-2-(3-Aminopropyl)-1-(1-propyl-1H-imidazol-4-yl)cyclopropanecarboxylic acid] | 97
NCCC[C@H]1C[C@]1(C(=O)O)c1cn(C2CCCCC2)cn1 (relative stereo) [Example 4, (1R*,2S*)-2-(3-Aminopropyl)-1-(1-cyclohexyl-1H-imidazol-4-yl)cyclopropanecarboxylic acid] | 29
C[C@H]1CC[C@H](n2cnc([C@@]3(C(=O)O)C[C@@H]3CCCN)c2)CC1 (relative stereo) [Example 5, (1R*,2S*)-2-(3-Aminopropyl)-1-[1-(trans-4-methylcyclohexyl)-1H-imidazol-4-yl]cyclopropanecarboxylic acid] | 14
NCCC[C@H]1C[C@]1(C(=O)O)c1cn(-c2ccccc2)cn1 (relative stereo) [Example 6, (1R*,2S*)-2-(3-Aminopropyl)-1-(1-phenyl-1H-imidazol-4-yl)cyclopropanecarboxylic acid] | 27
Cc1ccc(-n2cnc([C@@]3(C(=O)O)C[C@@H]3CCCN)c2)cc1 (relative stereo) [Example 7, (1R*,2S*)-2-(3-Aminopropyl)-1-[1-(4-methylphenyl)-1H-imidazol-4-yl]cyclopropanecarboxylic acid] | 16
Cc1cccc(-n2cnc([C@@]3(C(=O)O)C[C@@H]3CCCN)c2)c1 (relative stereo) [Example 8, (1R*,2S*)-2-(3-Aminopropyl)-1-[1-(3-methylphenyl)-1H-imidazol-4-yl]cyclopropanecarboxylic acid] | 37
Cc1ccccc1-n1cnc([C@@]2(C(=O)O)C[C@@H]2CCCN)c1 (relative stereo) [Example 9, (1R*,2S*)-2-(3-Aminopropyl)-1-[1-(2-methylphenyl)-1H-imidazol-4-yl]cyclopropanecarboxylic acid] | > 300
Cc1ccc(-n2cnc([C@@]3(C(=O)O)C[C@@H]3CCCN)c2)cc1C (relative stereo) [Example 10, (1R*,2S*)-2-(3-Aminopropyl)-1-[1-(3,4-dimethylphenyl)-1H-imidazol-4-yl]cyclopropanecarboxylic acid] | 42
CCc1ccc(-n2cnc([C@@]3(C(=O)O)C[C@@H]3CCCN)c2)cc1 (relative stereo) [Example 11, (1R*,2S*)-2-(3-Aminopropyl)-1-[1-(4-ethylphenyl)-1H-imidazol-4-yl]cyclopropanecarboxylic acid] | 31
COc1ccc(-n2cnc([C@@]3(C(=O)O)C[C@@H]3CCCN)c2)cc1 (relative stereo) [Example 12, (1R*,2S*)-2-(3-Aminopropyl)-1-[1-(4-methoxyphenyl)-1H-imidazol-4-yl]cyclopropanecarboxylic acid] | 36
NCCC[C@H]1C[C@]1(C(=O)O)c1cn(-c2ccc(C(F)(F)F)cc2)cn1 (relative stereo) [Example 13, (1R*,2S*)-2-(3-Aminopropyl)-1-{1-[4-(trifluoromethyl)phenyl]-1H-imidazol-4-yl}cyclopropanecarboxylic acid] | 140
NCCC[C@H]1C[C@]1(C(=O)O)c1cn(/C=C/c2ccccc2)cn1 (relative stereo) [Example 14, (1R*,2S*)-2-(3-Aminopropyl)-1-{1-[(E)-2-phenylvinyl]-1H-imidazol-4-yl}cyclopropanecarboxylic acid] | 99
NCCC[C@H]1C[C@]1(C(=O)O)c1cn(-c2ccc(F)cc2)cn1 (relative stereo) [Example 15, (1R*,2S*)-2-(3-Aminopropyl)-1-[1-(4-fluorophenyl)-1H-imidazol-4-yl]cyclopropanecarboxylic acid] | 21
NCCC[C@H]1C[C@]1(C(=O)O)c1cn(-c2ccc(Oc3ccccc3)cc2)cn1 (relative stereo) [Example 16, (1R*,2S*)-2-(3-Aminopropyl)-1-[1-(4-phenoxyphenyl)-1H-imidazol-4-yl]cyclopropanecarboxylic acid] | 52
NCCC[C@H]1C[C@]1(C(=O)O)c1cn(-c2ccc(F)c(F)c2)cn1 (relative stereo) [Example 17, (1R*,2S*)-2-(3-Aminopropyl)-1-[1-(3,4-difluorophenyl)-1H-imidazol-4-yl]cyclopropanecarboxylic acid] | 61
NCCC[C@H]1C[C@]1(C(=O)O)c1cn(-c2ccc(Cl)cc2)cn1 (relative stereo) [Example 18, (1R*,2S*)-2-(3-Aminopropyl)-1-[1-(4-chlorophenyl)-1H-imidazol-4-yl]cyclopropanecarboxylic acid] | 25

Compound | IC50 [nM]
NCCC[C@H]1C[C@]1(C(=O)O)c1cn(-c2cccc(Cl)c2)cn1 (relative stereo) [Example 19, (1R*,2S*)-2-(3-Aminopropyl)-1-[1-(3-chlorophenyl)-1H-imidazol-4-yl]cyclopropanecarboxylic acid] | 70
NCCC[C@H]1C[C@]1(C(=O)O)c1cn(-c2ccccc2Cl)cn1 (relative stereo) [Example 20, (1R*,2S*)-2-(3-Aminopropyl)-1-[1-(2-chlorophenyl)-1H-imidazol-4-yl]cyclopropanecarboxylic acid hydrochloride] | 140
NCCC[C@H]1C[C@]1(C(=O)O)c1cn(-c2ccc3ccccc3c2)cn1 (relative stereo) [Example 21, (1R*,2S*)-2-(3-Aminopropyl)-1-[1-(2-naphthyl)-1H-imidazol-4-yl]cyclopropanecarboxylic acid] | 27
NCCC[C@H]1C[C@]1(C(=O)O)c1cn(-c2cccc(F)c2)cn1 (relative stereo) [Example 22, (1R*,2S*)-2-(3-Aminopropyl)-1-[1-(3-fluorophenyl)-1H-imidazol-4-yl]cyclopropanecarboxylic acid] | 40
NCCC[C@H]1C[C@]1(C(=O)O)c1cn(-c2ccncc2)cn1 (relative stereo) [Example 23, (1R*,2S*)-2-(3-Aminopropyl)-1-(1-pyridin-4-yl-1H-imidazol-4-yl)cyclopropanecarboxylic acid hydrochloride] | 170
NCCC[C@H]1C[C@]1(C(=O)O)c1cn(-c2cccnc2)cn1 (relative stereo) [Example 24, (1R*,2S*)-2-(3-Aminopropyl)-1-(1-pyridin-3-yl-1H-imidazol-4-yl)cyclopropanecarboxylic acid] | 98
NCCC[C@H]1C[C@]1(C(=O)O)c1cn(-c2ccccn2)cn1 (relative stereo) [Example 25, (1R*,2S*)-2-(3-Aminopropyl)-1-(1-pyridin-2-yl-1H-imidazol-4-yl)cyclopropanecarboxylic acid] | 29
CCOC(=O)[C@]1(c2cn(-c3ccc(C)cc3)cn2)C[C@@H]1CCCN (relative stereo) [Example 26, Ethyl (1R*,2S*)-2-(3-aminopropyl)-1-[1-(4-methylphenyl)-1H-imidazol-4-yl]cyclopropanecarboxylate hydrochloride] | 10000
CC(CN)C[C@H]1C[C@]1(C(=O)O)c1cn(-c2ccccc2)cn1 (relative stereo) [Example 32, (1R*,2S*)-2-(3-Amino-2-methylpropyl)-1-(1-phenyl-1H-imidazol-4-yl)cyclopropanecarboxylic acid] | 35
Cc1ccc(-n2cnc([C@@]3(C(=O)O)C[C@@H]3CC(C)CN)c2)cc1 (relative stereo) [Example 33, (1R*,2S*)-2-(3-Amino-2-methylpropyl)-1-[1-(4-methylphenyl)-1H-imidazol-4-yl]cyclopropanecarboxylic acid] | 39
CC(CN)C[C@H]1C[C@]1(C(=O)O)c1cn(-c2ccc(S(C)(=O)=O)cc2)cn1 (relative stereo) [Example 34, (1R*,2S*)-2-(3-Amino-2-methylpropyl)-1-{1-[4-(methylsulfonyl)phenyl]-1H-imidazol-4-yl}cyclopropanecarboxylic acid] | 930
NCCC[C@H]1C[C@]1(C(=O)O)c1cn(-c2ccc(O)nc2)cn1 (relative stereo) [Example 35, (1R*,2S*)-2-(3-Aminopropyl)-1-[1-(6-hydroxypyridin-3-yl)-1H-imidazol-4-yl]cyclopropanecarboxylic acid] | 340
CC(CCN)[C@H]1C[C@]1(C(=O)O)c1cn(-c2ccccc2)cn1 (relative stereo) [Example 36, (1R*,2R*)-2-(3-Amino-1-methylpropyl)-1-(1-phenyl-1H-imidazol-4-yl)cyclopropanecarboxylic acid] | 36
NCCC[C@H]1C[C@]1(C(=O)O)c1cn(-c2cccs2)cn1 (relative stereo) [Example 37, (1R*,2S*)-2-(3-Aminopropyl)-1-[1-(2-thienyl)-1H-imidazol-4-yl]cyclopropanecarboxylic acid dihydrochloride] | 100
NCCC[C@H]1C[C@]1(C(=O)O)c1cn(-c2nccs2)cn1 (relative stereo) [Example 38, (1R*,2S*)-2-(3-Aminopropyl)-1-[1-(1,3-thiazol-2-yl)-1H-imidazol-4-yl]cyclopropanecarboxylic acid] | 58
